These compounds were tested against T1, LRRK2 (Homo sapiens, UniProt Q5S007, G2019S) (assay: In Vitro LRRK2 Assay (LabChip 3000, fluorescently-labeled peptide substrate, ATP)). Settings: Table 9; LRRK2 Ki (micromolar); read-out: LRRK2 Ki (KI).
T1 construct: purchased Invitrogen PV4882 (lot 567054A)
Format: biochemical
How it was run: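 Read-out was LabChip capillary electrophoresis, resolving phospho- from non-phospho-peptide by fluorescence intensity. The kinase reaction combined enzyme, ATP, test compound and labeled peptide (4 μM working dilution) for 2 h in darkness before stop solution. Values were reported as Ki, from a tight-binding model with Et, S and Km, or as IC50 or percent inhibition.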

T1 sequence (Q5S007 whole entry G2019S): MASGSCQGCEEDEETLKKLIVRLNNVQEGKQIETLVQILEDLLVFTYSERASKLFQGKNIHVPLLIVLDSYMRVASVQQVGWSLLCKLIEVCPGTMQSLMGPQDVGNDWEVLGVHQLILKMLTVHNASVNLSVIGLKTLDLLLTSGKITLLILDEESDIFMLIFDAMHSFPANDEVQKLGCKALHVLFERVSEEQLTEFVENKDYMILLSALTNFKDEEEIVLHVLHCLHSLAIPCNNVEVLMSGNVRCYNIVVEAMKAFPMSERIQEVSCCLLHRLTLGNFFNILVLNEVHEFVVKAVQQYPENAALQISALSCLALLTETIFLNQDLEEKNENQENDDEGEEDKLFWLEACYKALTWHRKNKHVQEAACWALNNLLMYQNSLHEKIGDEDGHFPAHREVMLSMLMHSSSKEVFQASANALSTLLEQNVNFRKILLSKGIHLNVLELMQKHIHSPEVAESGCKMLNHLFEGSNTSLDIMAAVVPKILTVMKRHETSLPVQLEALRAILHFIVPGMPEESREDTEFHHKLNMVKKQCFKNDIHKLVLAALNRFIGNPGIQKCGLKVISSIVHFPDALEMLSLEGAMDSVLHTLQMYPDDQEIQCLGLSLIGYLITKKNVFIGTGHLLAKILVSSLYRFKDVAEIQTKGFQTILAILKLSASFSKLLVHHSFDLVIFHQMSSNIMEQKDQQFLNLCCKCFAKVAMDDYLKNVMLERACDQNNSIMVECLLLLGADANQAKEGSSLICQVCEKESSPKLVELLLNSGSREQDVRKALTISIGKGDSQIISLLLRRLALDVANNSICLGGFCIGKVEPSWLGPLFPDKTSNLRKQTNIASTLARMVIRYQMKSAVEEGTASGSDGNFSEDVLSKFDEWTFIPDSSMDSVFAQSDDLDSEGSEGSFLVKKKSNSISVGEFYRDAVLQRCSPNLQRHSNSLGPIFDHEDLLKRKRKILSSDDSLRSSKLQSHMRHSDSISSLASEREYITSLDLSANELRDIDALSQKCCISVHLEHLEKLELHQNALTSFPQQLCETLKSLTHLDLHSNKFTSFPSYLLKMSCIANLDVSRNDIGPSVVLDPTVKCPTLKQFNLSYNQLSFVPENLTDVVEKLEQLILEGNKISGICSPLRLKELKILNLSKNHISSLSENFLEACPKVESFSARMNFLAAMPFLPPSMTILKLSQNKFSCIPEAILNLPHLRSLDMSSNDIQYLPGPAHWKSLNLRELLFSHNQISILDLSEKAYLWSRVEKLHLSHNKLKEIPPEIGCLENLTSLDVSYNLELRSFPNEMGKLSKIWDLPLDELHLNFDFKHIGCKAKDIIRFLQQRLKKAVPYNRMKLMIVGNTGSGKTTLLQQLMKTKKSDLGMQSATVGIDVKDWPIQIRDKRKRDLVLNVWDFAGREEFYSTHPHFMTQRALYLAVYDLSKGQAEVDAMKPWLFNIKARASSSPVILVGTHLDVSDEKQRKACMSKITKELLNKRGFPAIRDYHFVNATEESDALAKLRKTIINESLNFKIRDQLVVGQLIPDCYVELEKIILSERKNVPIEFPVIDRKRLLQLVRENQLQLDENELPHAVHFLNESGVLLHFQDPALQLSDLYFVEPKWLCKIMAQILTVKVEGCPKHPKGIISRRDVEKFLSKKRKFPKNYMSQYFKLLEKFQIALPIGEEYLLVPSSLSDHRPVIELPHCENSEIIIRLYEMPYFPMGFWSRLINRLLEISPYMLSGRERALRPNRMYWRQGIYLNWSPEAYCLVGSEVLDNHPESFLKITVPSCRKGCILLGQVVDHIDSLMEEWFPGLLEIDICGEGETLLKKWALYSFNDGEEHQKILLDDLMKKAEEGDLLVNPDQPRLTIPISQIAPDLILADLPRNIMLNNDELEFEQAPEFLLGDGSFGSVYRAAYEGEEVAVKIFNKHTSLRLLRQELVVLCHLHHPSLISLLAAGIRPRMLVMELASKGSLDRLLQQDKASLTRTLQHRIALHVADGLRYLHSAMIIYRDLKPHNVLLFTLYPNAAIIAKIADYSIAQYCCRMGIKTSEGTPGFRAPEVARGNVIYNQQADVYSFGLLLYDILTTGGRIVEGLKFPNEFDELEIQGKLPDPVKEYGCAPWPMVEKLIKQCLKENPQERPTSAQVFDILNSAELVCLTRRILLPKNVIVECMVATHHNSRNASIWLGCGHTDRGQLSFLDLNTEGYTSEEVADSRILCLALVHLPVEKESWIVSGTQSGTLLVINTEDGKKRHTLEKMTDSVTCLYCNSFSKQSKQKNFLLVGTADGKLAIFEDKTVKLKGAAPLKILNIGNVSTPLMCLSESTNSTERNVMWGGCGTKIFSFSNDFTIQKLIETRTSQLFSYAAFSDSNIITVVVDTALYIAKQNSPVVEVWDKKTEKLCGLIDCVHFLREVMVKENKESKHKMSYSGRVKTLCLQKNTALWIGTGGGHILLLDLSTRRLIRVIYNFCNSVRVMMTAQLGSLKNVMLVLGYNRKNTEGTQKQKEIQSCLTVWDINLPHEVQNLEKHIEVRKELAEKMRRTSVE

| Ki | Compound |
| --- | --- |
| 32.2 nM | CNc1nc(Nc2cnn(C3COC3)c2C)ncc1C#N [Example 388, 4-Methylamino-2-(5-methyl-1-oxetan-3-yl-1H-pyrazol-4-ylamino)-pyrimidine-5-carbonitrile] |

Same assay, conditions: Table 10; LRRK2 Ki (micromolar); read-out: LRRK2 Ki (KI)

| Ki | Compound |
| --- | --- |
| 16 nM | CNc1nc(Nc2cn([C@H](C)C(=O)N3CCCC3)nc2C)ncc1C(F)(F)F [Example 403, (R)-2-(3-methyl-4-(4-(methylamino)-5-(trifluoromethyl)pyrimidin-2-ylamino)-1H-pyrazol-1-yl)-1-(pyrrolidin-l-yl)propan-1-one] |

Same assay, conditions: read-out: LRRK2 Ki (KI), Table 7

| Ki | Compound |
| --- | --- |
| 55 nM | COc1nc(Nc2cn(-c3ccncc3C)nc2C)ncc1Cl [Example 69, 5-chloro-4-methoxy-N-(3-methyl-1-(3-methylpyridin-4-yl)-1H-pyrazol-4-yl)pyrimidin-2-amine] |
| 9 nM | COc1nc(Nc2cnn(-c3ccc(C#N)cc3)c2C)ncc1Cl [Example 83, 4-[4-(5-Chloro-4-methoxy-pyrimidin-2-ylamino)-5-methyl-pyrazol-1-yl]-benzonitrile] |
| 20 nM | COc1nc(Nc2cn(S(=O)(=O)C3CC3)nc2C)ncc1Cl [Example 71, 5-chloro-N-(1-(cyclopropyl-sulfonyl)-3-methyl-1H-pyrazol-4-yl)-4-methoxy-pyrimidin-2-amine] |
| 15 nM | COc1nc(Nc2cnn(S(=O)(=O)C3CC3)c2C)ncc1Cl [Example 70, 5-chloro-N-(1-(cyclopropyl-sulfonyl)-5-methyl-1H-pyrazol-4-yl)-4-methoxy-pyrimidin-2-amine] |

Same assay, conditions: read-out: LRRK2 Ki (KI), Table 8

| Compound | Ki |
| --- | --- |
| CCNc1nc(Nc2cnn(C3CCN(C(=O)C4CC4)CC3)c2C)ncc1C(F)(F)F [Example 184, cyclopropyl(4-(4-(4-(ethylamino)-5-(trifluoromethyl)pyrimidin-2-ylamino)-5-methyl-1H-pyrazol-1-yl)piperidin-1-yl)methanone] | 4.7 nM |
| CCNc1nc(Nc2cn(C3COC3)nc2C)ncc1Br [Example 104, 5-bromo-N4-ethyl-N2-(3-methyl-1-(oxetan-3-yl)-1H-pyrazol-4-yl)pyrimidine-2,4-diamine] | 1.4 nM |
| CNc1nc(Nc2cn(-c3ccc(S(C)(=O)=O)cc3)nc2C)ncc1C(F)(F)F [Example 124, N4-methyl-N2-(3-methyl-1-(4-(methylsulfonyl)phenyl)-1H-pyrazol-4-yl)-5-(trifluoromethyl) pyrimidine-2,4-diamine] | 0.3 nM |
| CCNc1nc(Nc2cn(C3CN(C4COC4)C3)nc2C)ncc1C(F)(F)F [Example 182, N4-ethyl-N2-(3-methyl-1-(1-(oxetan-3-yl)azetidin-3-yl)-1H-pyrazol-4-yl)-5-(trifluoromethyl) pyrimidine-2,4-diamine] | 1.5 nM |
| CNc1nc(Nc2cnn(C3CCCC3O)c2C)ncc1C(F)(F)F (stereo not drawn) [Example 334, 2-[5-Methyl-4-(4-methylamino-5-trifluoromethyl-pyrimidin-2-ylamino)-pyrazol-1-yl]-cyclopentanol] | 6.3 nM |
| CCNc1nc(Nc2cnn(C3CCN(C(=O)C(C)C)CC3)c2C)ncc1C(F)(F)F [Example 181, l-(4-(4-(4-(ethylamino)-5-(trifluoromethyl)pyrimidin-2-ylamino)-5-methyl-1H-pyrazol-1-yl)piperidin-1-yl)-2-methylpropan-1-one] | 0.82 nM |
| CCNc1nc(Nc2cn(-c3ccc(C(=O)N(C)C)cc3)nc2C)ncc1C(F)(F)F [Example 263, 4-[4-(4-Ethylamino-5-trifluoromethyl-pyrimidin-2-ylamino)-3-methyl-pyrazol-1-yl]-N,N-dimethyl-benzamide] | 1.8 nM |
| CNc1nc(Nc2cnn(CC(C)(C)N3CCOCC3)c2C)ncc1C(F)(F)F [Example 288, N4-Methyl-N2-[5-methyl-1-(2-methyl-2-morpholin-4-yl-propyl)-1H-pyrazol-4-yl]-5-trifluoromethyl-pyrimidine-2,4-diamine] | 7.7 nM |
| CNc1nc(Nc2cnn([C@@H]3CCN(C4COC4)C3)c2C)ncc1C(F)(F)F [Example 211, (R)-N4-methyl-N2-(5-methyl-1-(1-(oxetan-3-yl)pyrrolidin-3-yl)-1H-pyrazol-4-yl)-5-(trifluoromethyl) pyrimidine-2,4-diamine] | 3.3 nM |
| CNc1nc(Nc2cn(C3CCN(C)CC3)nc2C)ncc1C(F)(F)F [Example 209, N4-methyl-N2-(3-methyl-1-(1-methylpiperidin-4-yl)-1H-pyrazol-4-yl)-5-(trifluoromethyl) pyrimidine-2,4-diamine] | 41 nM |
| CNc1nc(Nc2cn(-c3ccncc3C)nc2C)ncc1C(F)(F)F [Example 269, N4-Methyl-N2-[3-methyl-1-(3-methyl-pyridin-4-yl)-1H-pyrazol-4-yl]-5-trifluoromethyl-pyrimidine-2,4-diamine] | 9.1 nM |
| CCNc1nc(Nc2cnn(C3CCN(C(C)=O)CC3)c2C)ncc1C(F)(F)F [Example 137, 1-(4-(4-(4-(ethylamino)-5-(trifluoromethyl)pyrimidin-2-ylamino)-5-methyl-1H-pyrazol-1-yl)piperidin-1-yl)ethanone] | 0.4 nM |
| CNc1nc(Nc2cn(Cc3cnccn3)nc2C)ncc1C(F)(F)F [Example 317, N4-Methyl-N2-(3-methyl-1-pyrazin-2-ylmethyl-1H-pyrazol-4-yl)-5-trifluoromethyl-pyrimidine-2,4-diamine] | 1.2 nM |
| CCNc1nc(Nc2cn(CC(C)(C)O)nc2C(C)C)ncc1C(F)(F)F [Example 221, 1-(4-(4-(ethylamino)-5-(trifluoromethyl)pyrimidin-2-ylamino)-3-isopropyl-1H-pyrazol-l-yl)-2-methylpropan-2-ol] | 6.1 nM |

More lines, now with the values ahead:

| Ki | Compound |
| --- | --- |
| 1.8 nM | CNc1nc(Nc2cnn(CCF)c2C)ncc1C(F)(F)F [Example 133, N2-(1-(2-fluoroethyl)-5-methyl-1H-pyrazol-4-yl)-N4-methyl-5-(trifluoromethyl) pyrimidine-2,4-diamine] |
| 0.3 nM | CNc1nc(Nc2cn(-c3ccc(F)cc3)nc2C)ncc1Br [Example 108, 5-bromo-N2-(1-(4-fluorophenyl)-3-methyl-1H-pyrazol-4-yl)-N4-methylpyrimidine-2,4-diamine] |
| 3.9 nM | CCNc1nc(Nc2cn(C3CCOCC3)nc2C)ncc1C(F)(F)F [Example 159, N4-ethyl-N2-(3-methyl-1-(tetrahydro-2H-pyran-4-yl)-1H-pyrazol-4-yl)-5-(trifluoromethyl) pyrimidine-2,4-diamine] |
| 2.1 nM | CCN1CCC(n2ncc(Nc3ncc(C(F)(F)F)c(NC)n3)c2Cl)C(F)C1 (stereo not drawn) [Example 242, N2-(5-chloro-1-(1-ethyl-3-fluoropiperidin-4-yl)-1H-pyrazol-4-yl)-N4-methyl-5-(trifluoromethyl) pyrimidine-2,4-diamine] |
| 25 nM | CNc1nc(Nc2cn(Cc3cccnc3)nc2C)ncc1C(F)(F)F [Example 289, N4-Methyl-N2-(3-methyl-1-pyridin-3-ylmethyl-1H-pyrazol-4-yl)-5-trifluoromethyl-pyrimidine-2,4-diamine] |
| 18.8 nM | CNc1nc(Nc2cnn(C[C@H](C)OC)c2C)ncc1C(F)(F)F [Example 187, (S)-N2-(1-(2-methoxypropyl)-5-methyl-1H-pyrazol-4-yl)-N4-methyl-5-(trifluoromethyl) pyrimidine-2,4-diamine] |
| 17 nM | CNc1nc(Nc2cn(C[C@@H](C)OC)nc2C)ncc1C(F)(F)F [Example 270, N2-[1-((R)-2-Methoxy-propyl)-3-methyl-1H-pyrazol-4-yl]-N4-methyl-5-trifluoromethyl-pyrimidine-2,4-diamine] |
| 1.7 nM | CNc1nc(Nc2cnn(C3CC3)c2Cl)ncc1C(F)(F)F [Example 145, N2-(5-chloro-1-cyclopropyl-1H-pyrazol-4-yl)-N4-methyl-5-(trifluoromethyl) pyrimidine-2,4-diamine] |
| 484 nM | Cc1nc(Nc2cn(-c3ccc(S(C)(=O)=O)cc3)nc2C)ncc1Cl [Example 173, 5-chloro-4-methyl-N-(3-methyl-1-(4-(methylsulfonyl)phenyl)-1H-pyrazol-4-yl)pyrimidin-2-amine] |
| 6.8 nM | CNc1nc(Nc2cn(C3CCOC3)nc2C)ncc1C(F)(F)F (stereo not drawn) [Example 149, N4-methyl-N2-(3-methyl-1-(tetrahydrofuran-3-yl)-1H-pyrazol-4-yl)-5-(trifluoromethyl) pyrimidine-2,4-diamine] |
| 4.7 nM | CCNc1nc(Nc2cnn(S(=O)(=O)CC)c2C)ncc1C(F)(F)F [Example 244, N4-ethyl-N2-(1-(ethylsulfonyl)-5-methyl-1H-pyrazol-4-yl)-5-(trifluoromethyl) pyrimidine-2,4-diamine] |
| 1.8 nM | CNc1nc(Nc2cnn(C3CCCOC3)c2C)ncc1C(F)(F)F (stereo not drawn) [Example 231, N4-methyl-N2-(5-methyl-1-(tetrahydro-2H-pyran-3-yl)-1H-pyrazol-4-yl)-5-(trifluoromethyl) pyrimidine-2,4-diamine] |
| 0.3 nM | CNc1nc(Nc2cn(-c3cc(F)cc(F)c3)nc2C)ncc1Br [Example 116, 5-bromo-N2-(1-(3,5-difluorophenyl)-3-methyl-1H-pyrazol-4-yl)-N4-methylpyrimidine-2,4-diamine] |
| 5.4 nM | CCNc1nc(Nc2cn(C3CCN(CCOC)CC3)nc2C)ncc1C(F)(F)F [Example 282, N4-Ethyl-N2-{1-[1-(2-methoxy-ethyl)-piperidin-4-yl]-3-methyl-1H-pyrazol-4-yl}-5-trifluoromethyl-pyrimidine-2,4-diamine] |
| 8.8 nM | CNc1nc(Nc2cn(S(C)(=O)=O)nc2C)ncc1Cl [Example 101, 5-chloro-N4-methyl-N2-(3-methyl-1-(methylsulfonyl)-1H-pyrazol-4-yl)pyrimidine-2,4-diamine] |
| 16 nM | CNc1nc(Nc2cn(C3CCN(CCOC)CC3)nc2C)ncc1C(F)(F)F [Example 238, N2-(1-(1-(2-methoxyethyl)piperidin-4-yl)-3-methyl-1H-pyrazol-4-yl)-N4-methyl-5-(trifluoromethyl) pyrimidine-2,4-diamine] |
